Experimental data from patent US8669289B2, “Methods and compositions relating to hematologic malignancies” (The Jackson Laboratory, priority 2009, dated 2014).
Entries after “also recorded” stand apart in the source; their conditions may differ.

Key:
Alox5 gene = test: Gene expression in LSCs of CML mice with imatinib treatment (DNA microarray, RT-PCR); type: in vivo; details: imatinib 150 mg/kg every 4 hours, 5 doses from day 13 post BMT
From the text: (§1) Leukemic stem cells in CML (CML-SCs) are insensitive to BCR-ABL kinase inhibitors (Graham et al., 2002). A bone marrow transplantation (BMT) mouse model of CML is used as an assay system, in which bone marrow cells from donor mice pretreated with 5-fluorouracil (5-FU) and transduced with BCR-ABL result in development of CML in recipient mice (Li et al., 1999). Bone marrow cells from C57BL/6 (B6) mice are transduced with retrovirus containing BCR-ABL/GFP or GFP alone under conditions for induction of CML, followed by transplantation of the transduced cells into B6 recipient mice.
Fourteen days after BMT, bone marrow cells are isolated and subsequently sorted by FACS for LSCs (GFP^+Lin^−c-Kit^+Sca-1^+) (Hu et al., 2006). Total RNA is isolated from these BCR-ABL-expressing LSCs or from the GFP^+Lin^−c-Kit^+Sca-1^+ cells that only express GFP, and DNA microarray analysis is carried out to compare gene expression between BCR-ABL-expressing and non-BCR-ABL expressing Lin^−c-Kit^+Sca-1^+ cells.

LSCs = test: FACS of LT-LSCs and ST-LSCs/MPP cells in bone marrow of zileuton-treated CML mice; type: in vivo; details: 300 mg/kg twice a day from day 8; days 20 and 90 post BMT
Procedure: Cell populations affected by Alox5 deficiency are determined using FACS analysis. BCR-ABL-transduced Alox5^−/− bone marrow cells are transplanted into recipient mice (n=4) to induce CML, and bone marrow cells from these mice are analyzed by FACS for percentages of total HSCs (Lin^−c-Kit^+Sca-1^+), LT-HSCs (Lin^−c-Kit^+Sca-1^+CD34^−), and ST-HSCs/MPP cells (Lin^−c-Kit^+Sca-1^+CD34^+).
(§2) Recipients of BCR-ABL-transduced wild type bone marrow cells are treated with zileuton (300 mg/kg of body weight, twice a day) beginning at 8 days after BMT. […] At days 20 and 90 post BMT (induction of CML), FACS analysis is performed.

[1] = test system: leukemia stem cells (CD34+CD38-); test: Human CML CD34+CD38- cells in patient bone marrow culture, FACS; type: cell-based; details: 48 h, untreated 1.4%
Procedure: Bone marrow was isolated from a CML patient. The cells were cultured in serum-free media (SFM: Iscove modified Dulbecco medium (Sigma-Aldrich) supplemented with a serum substitute bovine serum albumin[…][…], BIT9500 from […] Technologies), five growth factors (5GF: cocktail of 20 ng/mL recombinant human IL-3 (rhIL-3), 20 ng/mL rhIL-6, 100 ng/mL rhFlt3-ligand, 100 ng/mL rh stem cell factor, available from […] Technologies)) and zileuton at two doses, 300 μM or 600 μM, for 48 hours. The cells were analyzed by FACS and the percentages of leukemia stem cells (CD34+CD38-) were determined using anti CD34 and anti CD38 antibodies.

[2] = test system: mice with BCR-ABL-induced CML; test: Leukemia cell infiltration to lungs and spleens of CML mice; type: in vivo; details: zileuton-treated CML mice
normal HSCs = test: FACS of normal HSCs in zileuton-treated mice; type: in vivo
Procedure: as §2, with “performed. […] No suppression of normal HSCs is found in placebo- or zileuton-treated mice receiving wild type donor bone marrow cells transduced with MSCV-IRES-GFP retrovirus.” for “performed.”

[3] = test system: mice with CML induced by BCR-ABL-T315I; test: Survival of mice with CML induced by BCR-ABL-T315I; type: in vivo; details: zileuton n=11 vs placebo n=6
Alox5 = target: T1, Alox5 (Mus musculus, UniProt P48999); test: Plasma level of LTB4 in CML mice; details: compared to placebo-treated CML mice
T1 sequence (P48999 1-674): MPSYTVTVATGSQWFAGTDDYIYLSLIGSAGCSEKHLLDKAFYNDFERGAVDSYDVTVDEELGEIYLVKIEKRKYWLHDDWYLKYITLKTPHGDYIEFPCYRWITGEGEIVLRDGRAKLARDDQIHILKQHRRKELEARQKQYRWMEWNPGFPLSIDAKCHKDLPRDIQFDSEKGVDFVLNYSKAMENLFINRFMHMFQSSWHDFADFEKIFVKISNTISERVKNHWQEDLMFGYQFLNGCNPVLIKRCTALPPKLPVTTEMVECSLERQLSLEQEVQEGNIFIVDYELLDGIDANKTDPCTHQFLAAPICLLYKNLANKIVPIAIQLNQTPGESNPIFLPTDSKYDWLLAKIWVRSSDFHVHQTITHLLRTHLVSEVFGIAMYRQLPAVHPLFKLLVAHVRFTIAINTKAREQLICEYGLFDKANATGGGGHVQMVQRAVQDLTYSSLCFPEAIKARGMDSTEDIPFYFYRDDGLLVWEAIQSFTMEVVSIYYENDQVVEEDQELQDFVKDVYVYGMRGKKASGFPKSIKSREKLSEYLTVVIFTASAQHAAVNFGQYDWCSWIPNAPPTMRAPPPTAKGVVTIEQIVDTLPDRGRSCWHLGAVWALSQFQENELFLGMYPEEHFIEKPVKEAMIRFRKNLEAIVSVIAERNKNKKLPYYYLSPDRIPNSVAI

[4] = test system: K562 myeloid leukemia cells; test: K562 cell proliferation, trypan blue live cell count; type: cell-based, human
Procedure: The cells are treated with curcumin at 5 different concentrations (20 μM; 40 μM; 60 μM; 80 μM; 100 μM) for 48, 72 and 96 hours. The cells are stained with trypan blue and counted. The total cell number of live cells is shown in the graph in FIG. 27. […] K562 is a human Bcr-Abl positive CML cell line, which was isolated from a CML patient in blast crisis (Koeffler, H. P., and Golde, D. W. 1980. Human myeloid leukemia cell lines: a review. […] This cell line is commonly used for screening compounds to detect anti-proliferative activities of leukemia cells and for the pharmacology and toxicology studies required for IND (Investigational New Drug) application. […] The cells are treated with zileuton at 7 different concentrations (10 μ[…]) for 48, and 72 hours. The cells are stained with trypan blue and counted. The total cell number of live cells following these treatments is shown in the graph in FIG. 28.

[5] = test system: GFP+Gr-1+ myeloid leukemia cells; test: FACS of GFP+Gr-1+ myeloid leukemia cells in peripheral blood and bone marrow of treated CML mice; type: in vivo
From the text: as §1
(§3) Water is used as placebo.

white blood cells = test: Peripheral white blood cell counts of CML mice; type: in vivo; details: 14 days after bone marrow transplantation
From the text: as §3
The white blood cells are collected from the CML induced mice 14 days after bone marrow transplantation.

[6] = test system: leukemia cells, LSCs, LT-LSC and ST-LSC+MPP; test: In vitro culture of bone marrow cells of CML mice with curcumin, live cell numbers by FACS; type: cell-based; details: 20 μM, 6 days, vs buffer control
Procedure: Bone marrow cells are isolated from 6- to 10-week-old C57BL/6 (B6) mice induced with BCR-ABL, for example using the retroviral vector MSCV-IRES-eGFP carrying the p210 BCR-ABL cDNA to produce CML mice. Total bone marrow cells were cultured in vitro in the presence of StemSpan serum-free medium (StemCell Technologies, Vancouver, BC) supplemented with 10 μg/mL heparin (Sigma, St Louis, Mo.), 10 ng/mL mouse SCF, 20 ng/mL mouse TPO, 20 ng/mL mouse IGF-2 (all from R&D Systems, Minneapolis, Minn.), and 10 ng/mL human FGF-1 (Invitrogen, Carlsbad, Calif.). Half of the medium was replaced after 3 days with fresh medium. (Peng et al Blood, 15 Jul. 2007, Vol. 110, No. 2, pp. 678-685; Zhang and Lodish Blood, 1 Jun. 2005, Vol. 105, No. 11, pp. 4314-4320; de Haan et al. Dev Cell 2003; 4:241-251). The cells were cultured for 6 days in the presence or absence of the Alox5 inhibitor, curcumin at (1,7-Bis(4-hydroxy-3-methoxyphenyl)-1,6-heptadiene-3,5-dione; Calbiochem cat. no. 239802) a concentration of 20 μM in vitro (5×10^6 cells/6 cm tissue culture plate) at 37° C. in a 5% CO2 tissue culture incubator. […] Total live cell numbers were measured for leukemia cells, leukemia stem cells, long-term LSC (LT-LSC) and short-term LSCs with multipotent progenitor cells (ST-LSC+MPP). […]

Q: With Cc1ccc(NC(=O)c2ccc(CN3CCN(C)CC3)cc2)cc1Nc1nccc(-c2cccnc2)n1 [Imatinib, 4-[(4-methylpiperazin-1-yl)methyl]-N-[4-methyl-3-[(4-pyridin-3-ylpyrimidin-2-yl)amino]-phenyl]-benzamide] as the compound, how does the “Up-regulation of the Alox5 gene by BCR-ABL in LSCs” value (Alox5 gene) read?
A: not abolished; also recorded: not prevented

Q: How did the “Ratio of percentage of LT-LSCs to percentage of ST-LSCs/MPP cells” value (LSCs) turn out when CC(c1cc2ccccc2s1)N(O)C(N)=O (stereo not shown) [Zileuton, N-[1-(1-benzothien-2-yl)ethyl]-N-hydroxyurea] was run?
A: increased with treatment

Q: What about the “Percentage of leukemia stem cells (CD34+CD38-)” value ([1]; 300 μM) of the same compound?
A: 1.1%

Q: And the “Percentage of leukemia stem cells (CD34+CD38-)” value ([1]; 600 μM)?
A: 0.9%

Q: And the “Leukemia cell infiltration to the lungs and the spleens” value [2]?
A: less severe leukemia cell infiltration

Q: And the “Differentiation of GFP- LT-HSCs in the same animals” value (normal HSCs; CML mice, 300 mg/kg twice a day)?
A: did not lead to blocked differentiation

Q: And the “Numbers of GFP+Lin-c-Kit+Sca-1+ cells in bone marrow or spleens” value (normal HSCs; mice receiving MSCV-IRES-GFP-transduced wild type bone marrow, day 14 after BMT)?
A: does not result in a reduction

Q: What about the “Survival of mice with CML induced by BCR-ABL-T315I” value [3] of the same compound?
A: prolongs survival

Q: What about the “Plasma level of LTB4” value (Alox5) of the same compound?
A: decreased

Q: What about the “Plasma level of LTB4” value (Alox5; listed as zileuton) of the same compound?
A: reduction

Q: What about the “Number of live K562 cells” value ([4]; 10-400 μM, 48 hours) of the same compound?
A: reduces the number of live cells in the 200 μM and 400 μM groups

Q: What about the “Number of live K562 cells” value ([4]; 10-400 μM, 72 hours) of the same compound?
A: shows an effect at all concentrations

Q: What about the “Percentage of GFP+Gr-1+ myeloid leukemia cells in the peripheral blood of CML mice” value (shortened to “Percentage … of CML mice”) ([5]; Day 11) of the same compound?
A: 48.3%

Q: What about the “Percentage … of CML mice” value ([5]; Day 14) of the same compound?
A: 49.9%

Q: What about the “Percentage … of CML mice” value ([5]; Day 21) of the same compound?
A: 62.9%

Q: And the “Percentage … of CML mice” value ([5]; Day 28)?
A: 61.4%

Q: And the “Percentage … of CML mice” value ([5]; Day 35)?
A: 39.7%

Q: And the “Percentage … of CML mice” value ([5]; Day 42)?
A: 29.4%

Q: What about the “Percentage … of CML mice” value ([5]; Day 60) of the same compound?
A: 5.1%

Q: What about the “GFP+Gr-1+ myeloid leukemia cells in bone marrow” value ([5]; bone marrow, during the treatment) of the same compound?
A: drop to low levels

Q: What about the “GFP+Gr-1+ cells in peripheral blood over time” value ([5]; from 11 days to 8 weeks) of the same compound?
A: gradually decrease with time

Q: And the “White blood cell counts” value (white blood cells)?
A: reduction of white blood cell counts less dramatically than does imatinib treatment

Q: What does the source list for COc1cc(C=CC(=O)CC(=O)C=Cc2ccc(O)c(OC)c2)ccc1O [Curcumin, 1,7-Bis(4-hydroxy-3-methoxyphenyl)-1,6-heptadiene-3,5-dione]?
A: Total live cell number of leukemia cells, LSCs, LT-LSC and ST-LSC+MPP [6]: reduced; Number of live K562 cells ([4]; 20-100 μM, 72 or 96 hours): reduces the number of live cells in all groups; Concentration at which an effect on live K562 cell number is shown ([4]; 48 hours): ≥ 40 µM
